Reference: patent publication EP0032304B1, “Antibiotic compositions” (ELI LILLY AND COMPANY, priority 1979, dated 1981)
Structures can show the parent of a compound that is named as a salt. Where two headings read alike, the source gives them in different places.

Assays:
[1] = system: M. Hyorhinis; test: Minimal inhibitory concentration vs mycoplasma in contaminated LLC-MK2 tissue culture; type: cell-based; conditions: LLC-MK2 tissue culture contaminated with M. Hyorhinis, combinations contain equal amounts of each antibiotic
Experimental: (§1) Suspensions of monkey kidney cells, LLC-MK2, in medium 199 (Morgan et al., Proc. Soc. Exp. Biol. Med, 73, 1 1950), were inoculated with cultures of the indicated mycoplasma to achieve an inoculum concentration of 1.5xlO' organisms/ml of cell suspension. Control cultures and the mycoplasma positive cultures included in each test were incubated at 37°C for 3-5 days. After incubation the medium in all cultures was changed to 1% horse serum in Medium 199 containing 1.68 g of sodium bicarbonates per liter. The tissue cultures innoculated with mycoplasma (except for mycoplasma positive control cultures) were then treated with the indicated individual antibiotics alone or with the combination of antibiotics shown in Table 1. When combinations of antibiotics were tested equal amounts of the antibiotics were used.
(§2) Solutions of the antibiotics were made up in Medium 199 containing 1.68 g of sodium bicarbonate per liter of medium. The solutions were sterile filtered through a millipore filter having a 0.2 µm porosity and were stored at 4°C prior to use. Two fold dilutions of the antibiotic solutions were made and each antibiotic solution was added to separate cultures to determine the minimal inhibitory concentration. The medium in each culture was changed twice a week with fresh antibiotic solution at the same concentration being added at each medium change. After two weeks, medium changes were made without antibiotic for two more weeks. Samples of the cultures were taken before each medium change in the last two weeks and were cultured to determine the presence of mycoplasma.
Cell suspensions of LLC-MK2 (Monkey kidney cell line) in Medium 199 containing 1% house serum of 4 ml volumes in tissue culture flasks were inoculated with a 3 day old culture of Mycoplasma hyorhinis (5 x 10^8 organism per ml in Eaton's broth). Approximately 2 to 3% of the mycoplasma culture per volume of the cell suspension was used. After inoculation the cell suspensions were incubated at a temperature of 37°C for from three to five days. Control cultures were also made up in the same manner. […]

[2] = system: M. Hyorhinis HH; test: as above; type: cell-based, Mycoplasma hyorhinis; conditions: for MIC: Mesomycoplasma hyorhinis
Experimental: as §1, §2
Cell suspensions of LLC-MK2 (Monkey kidney cell line) in Medium 199 containing 1% house serum of 4 ml volumes in tissue culture flasks were inoculated with a 3 day old culture of Mycoplasma hyorhinis (5 x 10^8 organism per ml in Eaton's broth). Approximately 2 to 3% of the mycoplasma culture per volume of the cell suspension was used. After inoculation the cell suspensions were incubated at a temperature of 37°C for from three to five days. Control cultures were also made up in the same manner. After incubation the medium in the control cultures and the mycoplasma positive cultures was replaced with fresh Medium 199 containing 1.68 g of sodium bicarbonate and 1% horse serum. The cultures were then treated with solutions of tylosin, tobramycin, and with the combination of tylosin and tobramycin in Medium 199 containing 1.68 g of sodium bicarbonate per liter. Solutions of each individual antibiotic and of the combination at a concentration of 1000 µg/ml were prepared. […] By two-fold serial dilution solutions at various concentrations down to 0.39 µg/ml were prepared. Each of the antibiotic solutions was added to a separate flask containing the tissue culture.
The tissue culture medium was replaced in each flask twice a week and at each medium change for two weeks a fresh solution of the antibiotic at the same concentration was added. After two weeks fresh medium replacements were made for two more weeks without the addition of antibiotic. Samples of each culture were taken before each medium replacement and were cultured to determine the presence of mycoplasma.

[3] = system: M. gallisepticum 36 F; test: as above; type: cell-based; conditions: LLC-MK2 tissue culture contaminated with M. gallisepticum 36 F (chicken mycoplasma), combinations contain equal amounts of each antibiotic
Experimental: as §1, §2

[4] = system: M. gallisepticum 41313; test: as above; type: cell-based; conditions: Mycoplasmoides gallisepticum; LLC-MK2 tissue culture contaminated with M. gallisepticum 41313 (chicken mycoplasma); combinations contain equal amounts of each antibiotic
Experimental: as §1, §2

[5] = system: Swine L3F12F7; test: as above; type: cell-based; conditions: Mycoplasmopsis arginini; LLC-MK2 tissue culture contaminated with Swine L3F12F7 (mycoplasma isolated from swine); combinations contain equal amounts of each antibiotic
Experimental: as §1, §2

[6] = system: M. Hyorhinis HEK; test: as above; type: cell-based; conditions: Mesomycoplasma hyorhinis; LLC-MK2 tissue culture contaminated with M. Hyorhinis HEK (isolate from human embryonic kidney tissue); combinations contain equal amounts of each antibiotic
Experimental: as §1, §2

[7] = system: P. hemolytica strain 41 D; test: In vitro MIC and checkerboard titration of the combination; type: cell-based, Pasturella hemolytica; conditions: antibiotic alone
Experimental: This organism can cause pneumonia in cattle which in cases of severe infection can lead to death. […] The synergistic activity of the combination of the two antibiotics was determined by the "checkerboard" titration method. In this method two antibiotics are tested in serial dilutions and in all combinations of these dilutions together to find the concentrations of each antibiotic, both alone and in combination, that inhibit growth of the test microorganism. The nature of the interaction between the two antibiotics may be determined algebraically or geometrically. In the algebraic method, the concentration of each antibiotic in the combination that inhibits growth is expressed as a fraction of the concentration that produces the same effect when the antibiotic is used alone. When the sum of these fractions is one, the combination is additive, when the sum is less than one, the combination is synergistic; and when the sum is greater than one, the combination is antagonistic.
Below are shown the calculations using data obtained in the in vitro test of tylosin, apramycin and the combination of the two antibiotics against P. hemolytica.

[8] = 28 day weight gain and feed utilization trial in post weaned pigs; type: in vivo; conditions: 28 days; for Daily feed intake (Rel) / Daily gain (Rel) / Feed efficiency (Rel) / Final weight (Rel): comparison to negative controls (100), 100 ppm in feed; for Daily feed intake x̄ (kg) per animal / Daily gain x̄ (g) per animal / Feed efficiency x̄ (kg feed/kg gain) / Final weight x̄ (kg) per animal: post weaned pigs, 100 ppm in feed (combination 100 ppm of each); for Final weight x̄ (kg) per animal: mean of two like trials
Experimental: The trials were carried out in pens with 6 pigs per pen for 28 days. The pigs were of mixed sex having an average initial body weight of 12.89 kg and an average age of six weeks. The animals received water before and after feeding. The animals were fed twice daily with feed having the following composition.
The tylosin-apramycin combination was compared in the trials with tylosin alone and with apramycin alone. The antibiotics and the combination thereof were administered in the animal feed at a level of 100 ppm, and, in the case of the combination; at 100 ppm for each antibiotic.

[9] = system: E. coli; test: 21 day trial in weanling pigs: treatment and control of colibacillosis, weight gain, feed efficiency, diarrhoea; type: in vivo; conditions: for Diarrhoea index: score 1 (formed stools only) to 5 (liquid stools only), scored twice daily for 13 days and once on the 14th day, 110 ppm in feed; for Percent increase over controls: Reduction of diarrhoea / Percent increase over controls: Average daily weight gain / Percent increase over controls: Improved feed efficiency / Average daily feed / Average daily gain / Feed efficiency: weanling pigs, 21 days; for Percent increase over controls: Reduction of diarrhoea: difference in incidence as percentage of the control incidence; for Percent increase over controls: Average daily weight gain / Percent increase over controls: Improved feed efficiency: vs non-treated control group; for Average daily feed / Average daily gain / Feed efficiency: tylosin phosphate and apramycin sulfate at 110 ppm in feed, combination 110 ppm of each
Text: Tylosin and apramycin were each administered in the feed at a level of 110 ppm. The antibiotic combination was likewise administered in the feed containing both antibiotics at the 110 ppm level. The results are shown as a percentage increase over a non-treated control group as calculated from the statistical evaluation of the data obtained in the study.
The efficacy of the tylosin-apramycin combination in the treatment and control of colibacillosis is shown by the results obtained in a 21 day trial with weanling pigs. The pigs were divided by weight into treatment and control groups of eight pigs. Each treatment was randomly assigned to three groups. The animals were fed a normal ration ad libitum with the treatment groups receiving feed containing 110 ppm of each antibiotic. Weight gains, feed efficiency and the incidence of diarrhoea were used to measure the response to treatment.
Ninety-six weanling pigs averaging 6.0 kg in weight were randomly allocated by weight into 12 pens of 8 pigs per pen. Four treatments were used in the study as follows: 1) Non-medicated controls; 2) apramycin fed at 110 ppm; 3) tylosin phosphate fed at 110 ppm; and 4) apramycin sulfate and tylosin phosphate both fed at 110 ppm. Each treatment was replicated through three pens.
The pigs were fed for 21 days ad libitum a ration of 20% protein corn-soy meal with some rolled oats included for roughage. Vitamins and minerals were added as needed to balance the ration. The only difference in the rations fed to all pigs was the inclusion of the appropriate antibiotic or antibiotic combination in each of the medicated rations. All feed was weighed as fed, with the feed remaining at the end of the weigh period, weighed and discarded. The pigs were weighed at the initiation of the study and weekly thereafter.
Diarrhoea scores were maintained on a pen basis. The scoring was done by the same person on a twice daily schedule for the first 13 days and once only on the 14th day. The scoring index was the same as that shown in footnote 2 of Table 5.

[10] = LLC-MK2 tissue culture contaminated with M. Hyorhinis HH (isolate from human heart tissue), combinations contain equal amounts of each antibiotic
[11] = LLC-MK2 tissue culture contaminated with M. Hyorhinis HH (isolate from human heart tissue), combinations contain equal amounts of each antibiotic, read-out: Minimal inhibitory concentration
[12] = 110 ppm of each antibiotic in feed

Gentamicin
Minimal inhibitory concentration [1]: 100 µg/mL

Spiromycin
Minimal inhibitory concentration [2, 10]: >800 µg/mL

Tylosin tartrate
Minimal inhibitory concentration [3]: >800 µg/mL
Minimal inhibitory concentration [2, 10]: 200 µg/mL

CO[C@H]1C[C@H](O[C@H]2[C@H](C)[C@@H](O[C@@H]3O[C@H](C)C[C@H](N(C)C)[C@H]3O)[C@@H](C)C[C@@]3(CO3)C(=O)[C@H](C)[C@@H](O)[C@@H](C)[C@@H](C)OC(=O)[C@@H]2C)O[C@@H](C)[C@@H]1O [Oleandomycin]
MIC [2, 11]: 400 µg/mL

NCC1OC(OC2C(N)CC(N)C(OC3OC(CO)C(O)C(N)C3O)C2O)C(N)CC1O (stereo not drawn) [Tobramycin sulfate]
MIC [2, 11]: 200 µg/mL

NC[C@H]1O[C@H](O[C@H]2[C@H](O)[C@@H](O[C@H]3O[C@H](CO)[C@@H](O)[C@H](N)[C@H]3O)[C@H](N)C[C@@H]2N)[C@H](N)C[C@@H]1O [Tobramycin]
MIC ([1]; Mesomycoplasma hyorhinis): 100 µg/mL
MIC [4]: 200 µg/mL
MIC [5]: 50 µg/mL
MIC ([3]; Mycoplasmoides gallisepticum): 100 µg/mL
MIC [6]: > 500 µg/mL
MIC ([2]; Example 4, procedure of Example 1, LLC-MK2 tissue culture, read-out: MIC): 200 µg/mL

Magnamycin
Minimal inhibitory concentration [2, 10]: >800 µg/mL

CC[C@H]1OC(=O)C[C@@H](O)[C@H](C)[C@@H](O[C@@H]2O[C@H](C)[C@@H](O[C@H]3C[C@@](C)(O)[C@@H](O)[C@H](C)O3)[C@H](N(C)C)[C@H]2O)[C@@H](CC=O)C[C@@H](C)C(=O)/C=C/C(C)=C/[C@@H]1CO[C@@H]1O[C@H](C)[C@@H](O)[C@@H](OC)[C@H]1OC [Tylosin]
MIC [7]: 50 µg/mL
MIC [5]: 200 µg/mL
MIC [6]: > 200 µg/mL
Daily feed intake (Rel) [8]: (100) percentage
Daily gain (Rel) [8]: (106) percentage
Feed efficiency (Rel) [8]: (97) percentage
Final weight (Rel) [8]: (102) percentage
Daily feed intake x̄ (kg) per animal [8]: 0,92 kg
Daily gain x̄ (g) per animal [8]: 449 g
Feed efficiency x̄ (kg feed/kg gain) [8]: 2,07 kg feed/kg gain
Final weight x̄ (kg) per animal [8]: 25,58 kg
mean diarrhoea scores vs time in days (incidence of diarrhoea) ([9]; plot in the accompanying drawing, 110 ppm of each antibiotic in feed): some effectiveness
Diarrhoea index [9]: 2.10
Percent increase over controls: Reduction of diarrhoea [9, 12]: 26.4%
Percent increase over controls: Average daily weight gain [9, 12]: 29.7%
Percent increase over controls: Improved feed efficiency [9, 12]: 11.4%
Average daily feed [9]: 0.51 kg
Average daily gain [9]: 0.31 kg
Feed efficiency [9]: 1.62
Minimal inhibitory concentration [2, 10]: 200 µg/mL

NC[C@H]1O[C@H](O[C@H]2[C@H](O)[C@@H](O[C@H]3O[C@H](CO)[C@@H](O)[C@H](N)[C@H]3O)[C@H](N)C[C@@H]2N)[C@H](N)[C@@H](O)[C@@H]1O [Nebramycin Factor 5]
Minimal inhibitory concentration [2, 10]: 200 µg/mL

CO[C@@H]1[C@@H](O[C@@H]2O[C@H](C)[C@@H](O[C@H]3C[C@@](C)(O)[C@@H](OC(=O)CC(C)C)[C@H](C)O3)[C@H](N(C)C)[C@H]2O)[C@@H](CC=O)C[C@@H](C)[C@@H](O)/C=C/C=C/C[C@@H](C)OC(=O)C[C@H]1O [Leucomycin]
Minimal inhibitory concentration [2, 10]: >400 µg/mL
MIC [2, 11]: 400 µg/mL

CN[C@@H]1[C@@H](O[C@H]2O[C@H](CO)[C@@H](N)[C@H](O)[C@H]2O)OC2C[C@@H](N)[C@@H](O[C@H]3[C@H](O)[C@@H](O)[C@H](N)C[C@@H]3N)OC2[C@@H]1O (stereo partly drawn) [Apramycin]
MIC [7]: 25 µg/mL
Daily feed intake (Rel) [8]: (100) percentage
Daily gain (Rel) [8]: (110) percentage
Feed efficiency (Rel) [8]: (92) percentage
Final weight (Rel) [8]: (102) percentage
Daily feed intake x̄ (kg) per animal [8]: 0,92 kg
Daily gain x̄ (g) per animal [8]: 467 g
Feed efficiency x̄ (kg feed/kg gain) [8]: 1,96 kg feed/kg gain
Final weight x̄ (kg) per animal [8]: 25,62 kg
Diarrhoea index [9]: 1.64
Percent increase over controls: Reduction of diarrhoea [9, 12]: 42.8%
Percent increase over controls: Average daily weight gain [9, 12]: 19.0%
Percent increase over controls: Improved feed efficiency [9, 12]: 10.3%
Average daily feed [9]: 0.47 kg
Average daily gain [9]: 0.29 kg
Feed efficiency [9]: 1.64
MIC [2, 11]: 600 µg/mL

Neomycin
Minimal inhibitory concentration [1]: 100 µg/mL
